According to ChEMBL document CHEMBL1649161, “Pharmacokinetics of EDP-420 after ascending single oral doses in healthy adult volunteers” (Antimicrob Agents Chemother, 2009):

Tests used:
[1] = Half life in healthy human plasma at 100 mg, po administered as single dose measured after 120 hrs; format: ADME, organism-based
[2] = Apparent volume of distribution in healthy human plasma at 100 mg, po administered as single dose measured after 120 hrs; format: ADME, organism-based

## CC[C@H]1OC(=O)[C@H](C)C(=O)[C@H](C)[C@@H](O[C@@H]2O[C@H](C)C[C@H](N(C)C)[C@H]2O)[C@@]2(C)C[C@@H](C)/C(=N\C(C)=O)[C@H](C)[C@@H](OC/C(=N\OCc3ccc(-n4cccn4)nc3)CO2)[C@]1(C)O [MODITHROMYCIN]
[1]
  half-life: 936 min
[2]
  Vd/F: 656 L
